# Patent publication US20230085307A1, “PYRIDAZINONE COMPOUND AND HERBICIDE” (NISSAN CHEMICAL CORPORATION, priority 2019, published 2023)
# Assays:
# green foxtail [1] = experiment: Test Example 5: herbicidal effect by foliage application, plastic box (Table 20, symbol G); type: in vivo, green foxtail (Setaria viridis); conditions: foliage application, 320 g/ha, evaluated three weeks after application
# Outline: (§1)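 Plants sown in sterilized diluvial soil and grown 14 days in a greenhouse at 25° C to 30° C, then sprayed on the foliage with the compound's emulsion diluted in water to a predetermined herbicide amount. Injury to weeds and crops scored three weeks after application on a visual rating scale.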
# velvetleaf [2] = experiment: Test Example 4: herbicidal effect by soil treatment (Table 19, symbol M); type: in vivo, velvetleaf (Abutilon theophrasti); conditions: amount of applied herbicide 320 g/ha
# Outline: (§2)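 Three weeks of greenhouse growth at 25° C. to 30° C. followed a uniform surface spray of water-diluted emulsion at a predetermined herbicide amount. Seeds had been sown beforehand under about 1.5 cm of sterilized diluvial soil. Grading followed criteria set out in an earlier test.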
# barnyard grass [3] = experiment: Test Example 3: herbicidal effect by foliage application, Wagner pot (Table 18, symbol H); type: in vivo, barnyard grass (Echinochloa crus-galli); conditions: amount of applied herbicide 320 g/ha
# Outline: (§3)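 Plants were sown in alluvial soil held under 0.1–0.5 cm standing water and grown 14 days in a greenhouse at 25–30 °C. An emulsifiable formulation, water-diluted to the set dose, was then sprayed onto the foliage, and effects were scored three weeks later using previously defined criteria.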
# lambsquarters [4] = experiment: Test Example 5: herbicidal effect by foliage application, plastic box (Table 20, symbol O); type: in vivo, lambsquarters (Chenopodium album); conditions: foliage application, 320 g/ha, evaluated three weeks after application
# Outline: as §1
# blackgrass [5] = experiment: Test Example 4: herbicidal effect by soil treatment (Table 19, symbol J); type: in vivo, blackgrass (Alopecurus myosuroides); conditions: amount of applied herbicide 320 g/ha
# Outline: as §2
# chickweed [6] = experiment: Test Example 5: herbicidal effect by foliage application, plastic box (Table 20, symbol P); type: in vivo, common chickweed (Stellaria media); conditions: foliage application, 320 g/ha, evaluated three weeks after application
# Outline: as §1
# barnyard grass [7] = experiment: Test Example 4: herbicidal effect by soil treatment (Table 19, symbol H); type: in vivo, barnyard grass (Echinochloa crus-galli); conditions: amount of applied herbicide 320 g/ha
# Outline: as §2
# windgrass [8] = experiment: Test Example 4: herbicidal effect by soil treatment (Table 19, symbol L); type: in vivo, windgrass (Apera spica-venti); conditions: amount of applied herbicide 320 g/ha
# Outline: as §2
# wild oat [9] = experiment: Test Example 4: herbicidal effect by soil treatment (Table 19, symbol I); type: in vivo, wild oat (Avena fatua); conditions: amount of applied herbicide 320 g/ha
# Outline: as §2
# barnyard grass [10] = experiment: Test Example 5: herbicidal effect by foliage application, plastic box (Table 20, symbol H); type: in vivo, barnyard grass (Echinochloa crus-galli); conditions: foliage application, 320 g/ha, evaluated three weeks after application
# Outline: as §1
# southern crabgrass [11] = experiment: Test Example 5: herbicidal effect by foliage application, plastic box (Table 20, symbol F); type: in vivo, southern crabgrass (Digitaria ciliaris); conditions: foliage application, 320 g/ha, evaluated three weeks after application
# Outline: as §1
# Chinese sprangletop = experiment: Test Example 3: herbicidal effect by foliage application, Wagner pot (Table 18, symbol D); type: in vivo, chinese sprangletop (Leptochloa chinensis); conditions: amount of applied herbicide 320 g/ha
# Outline: as §3
# Japanese bulrush = experiment: Test Example 1: herbicidal activity, application before weed generation under submerged conditions (Table 16, symbol B); type: in vivo, Japanese bulrush (Schoenoplectus juncoides); conditions: 320 g/ha applied herbicide
# Outline: (§4)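 Alluvial soil was flooded to 4 cm depth, weed seeds were sown mixed and 2.5-leaf rice seedlings were transplanted. On sowing day, the compound's emulsion, diluted in water to a set dose, was applied to the water surface. Plants grew at 25–30 °C and were scored 0–5 after three weeks.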
# chickweed [12] = experiment: Test Example 4: herbicidal effect by soil treatment (Table 19, symbol P); type: in vivo, common chickweed (Stellaria media); conditions: amount of applied herbicide 320 g/ha
# Outline: as §2
# persian speedwell [13] = experiment: Test Example 5: herbicidal effect by foliage application, plastic box (Table 20, symbol R); type: in vivo, Persian speedwell (Veronica persica); conditions: foliage application, 320 g/ha, evaluated three weeks after application
# Outline: as §1
# blackgrass [14] = experiment: Test Example 5: herbicidal effect by foliage application, plastic box (Table 20, symbol J); type: in vivo, blackgrass (Alopecurus myosuroides); conditions: foliage application, 320 g/ha, evaluated three weeks after application
# Outline: as §1
# green foxtail [15] = experiment: Test Example 4: herbicidal effect by soil treatment (Table 19, symbol G); type: in vivo, green foxtail (Setaria viridis); conditions: amount of applied herbicide 320 g/ha
# Outline: as §2
# rice flat sedge = experiment: Test Example 3: herbicidal effect by foliage application, Wagner pot (Table 18, symbol E); type: in vivo, rice flat sedge (Cyperus iria); conditions: amount of applied herbicide 320 g/ha
# Outline: as §3
# Italian ryegrass [16] = experiment: Test Example 5: herbicidal effect by foliage application, plastic box (Table 20, symbol K); type: in vivo, Italian ryegrass (Lolium multiflorum); conditions: foliage application, 320 g/ha, evaluated three weeks after application
# Outline: as §1
# late watergrass = experiment: Test Example 1: herbicidal activity, application before weed generation under submerged conditions (Table 16, symbol A); type: in vivo, late watergrass (Echinochloa oryzicola); conditions: 320 g/ha applied herbicide
# Outline: as §4
# redroot pigweed [17] = experiment: Test Example 5: herbicidal effect by foliage application, plastic box (Table 20, symbol N); type: in vivo, redroot pigweed (Amaranthus retroflexus); conditions: foliage application, 320 g/ha, evaluated three weeks after application
# Outline: as §1
# windgrass [18] = experiment: Test Example 5: herbicidal effect by foliage application, plastic box (Table 20, symbol L); type: in vivo, windgrass (Apera spica-venti); conditions: foliage application, 320 g/ha, evaluated three weeks after application
# Outline: as §1
# Italian ryegrass [19] = experiment: Test Example 4: herbicidal effect by soil treatment (Table 19, symbol K); type: in vivo, Italian ryegrass (Lolium multiflorum); conditions: amount of applied herbicide 320 g/ha
# Outline: as §2
# southern crabgrass [20] = experiment: Test Example 4: herbicidal effect by soil treatment (Table 19, symbol F); type: in vivo, southern crabgrass (Digitaria ciliaris); conditions: amount of applied herbicide 320 g/ha
# Outline: as §2
# oval-leafed pondweed = experiment: Test Example 1: herbicidal activity, application before weed generation under submerged conditions (Table 16, symbol C); type: in vivo, oval-leafed pondweed (Monochoria vaginalis); conditions: 320 g/ha applied herbicide
# Outline: as §4
# lambsquarters [21] = experiment: Test Example 4: herbicidal effect by soil treatment (Table 19, symbol O); type: in vivo, lambsquarters (Chenopodium album); conditions: amount of applied herbicide 320 g/ha
# Outline: as §2
# redroot pigweed [22] = experiment: Test Example 4: herbicidal effect by soil treatment (Table 19, symbol N); type: in vivo, redroot pigweed (Amaranthus retroflexus); conditions: amount of applied herbicide 320 g/ha
# Outline: as §2
# velvetleaf [23] = experiment: Test Example 5: herbicidal effect by foliage application, plastic box (Table 20, symbol M); type: in vivo, velvetleaf (Abutilon theophrasti); conditions: foliage application, 320 g/ha, evaluated three weeks after application
# Outline: as §1
# persian speedwell [24] = experiment: Test Example 4: herbicidal effect by soil treatment (Table 19, symbol R); type: in vivo, Persian speedwell (Veronica persica); conditions: amount of applied herbicide 320 g/ha
# Outline: as §2
# wild oat [25] = experiment: Test Example 5: herbicidal effect by foliage application, plastic box (Table 20, symbol I); type: in vivo, wild oat (Avena fatua); conditions: foliage application, 320 g/ha, evaluated three weeks after application
# Outline: as §1
structure (smiles),measurement,setting,value
CCOc1cccc(-c2sc3ccc(F)cc3c2-c2c(O)c(C)nn(C)c2=O)c1 [2-211],herbicidal effect on G: green foxtail (criteria 0-5),green foxtail [1],5 (Herbicidal rate of 90% or more (almost completely withered))
same,"M: velvetleaf, herbicidal effect rating",velvetleaf [2],3 (Herbicidal rate of 40% or more and less than 70%)
same,herbicidal effect on H: barnyard grass,barnyard grass [3],5 (Herbicidal rate of 90% or more (almost completely withered))
same,herbicidal effect on O: lambsquarters (criteria 0-5),lambsquarters [4],5 (Herbicidal rate of 90% or more (almost completely withered))
same,"J: blackgrass, herbicidal effect rating",blackgrass [5],4 (Herbicidal rate of 70% or more and less than 90%)
same,herbicidal effect on P: chickweed (criteria 0-5),chickweed [6],5 (Herbicidal rate of 90% or more (almost completely withered))
same,"H: barnyard grass, herbicidal effect rating",barnyard grass [7],5 (Herbicidal rate of 90% or more (almost completely withered))
same,"L: windgrass, herbicidal effect rating",windgrass [8],3 (Herbicidal rate of 40% or more and less than 70%)
same,"I: wild oat, herbicidal effect rating",wild oat [9],0 (Herbicidal rate of 5% or less (almost no effect))
same,herbicidal effect on H: barnyard grass (criteria 0-5),barnyard grass [10],5 (Herbicidal rate of 90% or more (almost completely withered))
same,herbicidal effect on F: southern crabgrass (criteria 0-5),southern crabgrass [11],5 (Herbicidal rate of 90% or more (almost completely withered))
same,herbicidal effect on D: Chinese sprangletop,Chinese sprangletop,5 (Herbicidal rate of 90% or more (almost completely withered))
same,Herbicidal effect on B: Japanese bulrush (grade 0-5),Japanese bulrush,0 (Herbicidal rate of 5% or less (almost no effect))
same,"P: chickweed, herbicidal effect rating",chickweed [12],3 (Herbicidal rate of 40% or more and less than 70%)
same,herbicidal effect on R: persian speedwell (criteria 0-5),persian speedwell [13],5 (Herbicidal rate of 90% or more (almost completely withered))
same,herbicidal effect on J: blackgrass (criteria 0-5),blackgrass [14],4 (Herbicidal rate of 70% or more and less than 90%)
same,"G: green foxtail, herbicidal effect rating",green foxtail [15],4 (Herbicidal rate of 70% or more and less than 90%)
same,herbicidal effect on E: rice flat sedge,rice flat sedge,4 (Herbicidal rate of 70% or more and less than 90%)
same,herbicidal effect on K: Italian ryegrass (criteria 0-5),Italian ryegrass [16],5 (Herbicidal rate of 90% or more (almost completely withered))
same,Herbicidal effect on A: late watergrass (grade 0-5),late watergrass,2 (Herbicidal rate of 20% or more and less than 40%)
same,herbicidal effect on N: redroot pigweed (criteria 0-5),redroot pigweed [17],5 (Herbicidal rate of 90% or more (almost completely withered))
same,herbicidal effect on L: windgrass (criteria 0-5),windgrass [18],4 (Herbicidal rate of 70% or more and less than 90%)
same,"K: Italian ryegrass, herbicidal effect rating",Italian ryegrass [19],5 (Herbicidal rate of 90% or more (almost completely withered))
same,"F: southern crabgrass, herbicidal effect rating",southern crabgrass [20],5 (Herbicidal rate of 90% or more (almost completely withered))
same,Herbicidal effect on C: oval-leafed pondweed (grade 0-5),oval-leafed pondweed,0 (Herbicidal rate of 5% or less (almost no effect))
same,"O: lambsquarters, herbicidal effect rating",lambsquarters [21],2 (Herbicidal rate of 20% or more and less than 40%)
same,"N: redroot pigweed, herbicidal effect rating",redroot pigweed [22],5 (Herbicidal rate of 90% or more (almost completely withered))
same,herbicidal effect on M: velvetleaf (criteria 0-5),velvetleaf [23],5 (Herbicidal rate of 90% or more (almost completely withered))
same,"R: persian speedwell, herbicidal effect rating",persian speedwell [24],5 (Herbicidal rate of 90% or more (almost completely withered))
same,herbicidal effect on I: wild oat (criteria 0-5),wild oat [25],0 (Herbicidal rate of 5% or less (almost no effect))
